Results taken from US20060276339A1, “Methods and compositions for increasing the efficacy of biologically-active ingredients” (priority 2002, published 2006).
In brackets after ≈: the same amount, converted by molar mass.

Columns and labels:
YMR4 yeast [1] = assay: Yeast growth in suspension, adenosine salvage pathway experiments (turbidity); format: cell-based, Saccharomyces cerevisiae; details: added to media with cycloheximide, 72 hours
Method: (§1) Selection in drug: To create drug resistant yeast strains, all four cell lines were grown up in the presence of 500 ng/ml of cycloheximide, and transferred to other cycloheximide containing plates after a period of four to six days. This transfer of cell lines and subculturing continued such that the yeast cells grew in the presence of cycloheximide for a period of at least a month.
Growth of cell lines in suspension for salvage pathway experiments: All cell lines were grown in liquid media either containing drug (for the drug selected lines) or not containing drug (for the non-drug selected lines). When the cultures reached a turbidity of 1.00 as measured at a wavelength of 600 in a spectrophotometer (OD600=1.00), 10 μl of each culture was then removed and placed in either media with nothing added, 3 mM potassium phosphate; 3 mM adenosine; 9 mM potassium phosphate and 3 mM adenosine (for controls); potassium phosphate and cycloheximide; adenosine and cycloheximide; adenosine, cycloheximide, and potassium phosphate. Cell cultures were further grown for 72 hours, and their turbidity was determined by OD600 readings on a spectrophotometer.

YMR4 yeast [2] = assay: Yeast drug selection growth assay, phosphatase deficient mutant; format: cell-based, Saccharomyces cerevisiae
Excerpt: (§2) Expression of AtPGP-1 in yeast: The AtPGP-1 cDNA (Arabidopsis thaliana MDR gene, accession #X61370) was subcloned into pVT101 downstream of the ADH promoter to create the AtPGP-1/pVT101 construct. AtPGP-1/pVT101 and pVT101 were transformed into Saccharomyces cerevisiae INVSCI (genotype: MATa, his3-Δ1, leu2, trpl-289, ura3-52) and YMR4 (genotype: MATαhis3-11,15, leu2-3, 112ura3Δ5, can Res pho5, 3::ura3A1) by a PEG lithium acetate procedure (Eble, 1992) and selected on uracil dropout medium.
(§3) Yeast Growth: Yeast were grown at 30° C. under conditions of constant selection for uracil auxotrophy. YNB (Bio101, Vista, Calif.) supplemented with CSM (uracil dropout) and 2% glucose was used to grow strains having pVT101 constructs. Cycloheximide (Sigma Chemical, St. Louis, Mo.) was added to liquid media or spread on solid media to achieve a final concentration of 500 ng/ml. Nigencm (Sigma Chemical, St. Louis, Mo.) was added to liquid media or spread on solid media to achieve a final concentration of 25 μg/ml. Yeast strains used in cycloheximide selection assays were always propagated in the presence of the cycloheximide on plates and then streaked onto new plates containing drug or no drug, such that induced resistance existed in each strain at the time of the start of the assay. […] Yeast selection assays in liquid media were quantitated by turbidity as measured by absorbance at OD600.

INVSCI yeast = assay: Yeast drug selection growth assay, wild-type strain; format: cell-based, Saccharomyces cerevisiae; details: cycloheximide 500 ng/ml
Excerpt: as §2, §3

[3] = system: wild-type Arabidopsis thaliana plants; assay: Arabidopsis germination selection assay, wild-type plants; format: in vivo; details: cycloheximide 500 ng/ml, phosphatase inhibitor 1 mM, 10-20 days
Method: Plant growth: Arabidopsis thaliana seeds were sown in a solid germination media containing MS salt, 2% sucrose, 0.8% agar, and vitamins (Valvekens et al., 1992). For selection assays, cycloheximide was spread on the media to achieve a final concentration of […]. Plant growth was measured by germination percentage after 6-30 days.
(§4) Plant Growth: Arabidopsis seeds were sown in a solid germination media containing MS salts (Sigma Chemical, St. Louis, Mo.), 2% sucrose, 0.8% agar, and vitamins (Valvekens et al., 1992). For selection assays, one of the following, or a combination of both, was added to media (cooled to less than 50° C. before adding) immediately prior to pouring into plates: cycloheximide at a final concentration of 500 ng/ml; α,β-methyleneadenosine 5′-diphosphate at a final concentration of 1 mM. Plant growth was measured by germination percentage after 10-20 days.
All other materials and methods were discussed above in Example 4.

[4] = system: AtPGP-1 overexpressing (MDR OE) Arabidopsis thaliana plants; format: in vivo; details: AtPGP-1 overexpressing plants; cycloheximide 500 ng/ml, phosphatase inhibitor 1 mM; 10-20 days
Excerpt: Similar methods were employed to express AtPGP-1 in Arabidopsis thaliana plants with the following modifications. […] This plasmid was then transformed into A. tumefaciens as described above, which was used to infect root calli to produce transgenic plants expressing AtPGP-1.
as §4

SW-13 = assay: IC50 test (NTT), 96 well plate, vinblastine sensitive parent line; format: cell-based; details: Homo sapiens, SW13, 96 h, read-out: IC50 (sensitive at)
Method: (§5) In order to determine the effect of ectophosphatase inhibitors on tumor cells resistant to a chemotherapeutic agent, 2 […] tumor cell lines were tested, a vinblastine resistant line (SW-13Vb003) and its vinblastine sensitive parent line, SW-13. A standard 4 day incubation at 37° C. and 5% CO2 was used. IC50 tests (NTT) were done using standard methodology in 96 well plate format with inhibitor concentrations ranging from 0-90 μg/ml (DMEM media). […] For NGXT194, SW-13 was sensitive at 20 μg/ml, whereas the vinblastine resistant line SW-13Vb003 was sensitive at 10 μg/ml. For NGXT196, SW-13 was sensitive at 30 μg/ml, whereas the vinblastine resistant line SW-13Vb003 was sensitive at 10 μg/ml. For NGXT1915, SW-13 was sensitive at 50 μg/ml, whereas the vinblastine resistant line SW-13Vb003 was sensitive at 20 μg/ml.

SW-13Vb003 = assay: IC50 test (NTT), 96 well plate, vinblastine resistant line; format: cell-based; details: 96 h, read-out: IC50 (sensitive at)
Method: as §5

[5] = system: ectoapyrase activity associated with the plasma membrane of cholinergic nerve terminal of Torpedo mannorata electric organs; details: Torpedo electric organ nerve terminal plasma membrane; cited from earlier work
[6] = system: S. cerevisiae yeast cells (YMR4, INVSC); assay: Yeast growth in suspension with ATP and drug (turbidity); format: cell-based, Saccharomyces cerevisiae; details: 100 mM ATP, 48 hours
Method: Cell lines: Cell lines were the same as those described above in Example 4 and 5. YMR4 MDRI is the phosphatase mutant yeast strain overexpressing AtPGP-1; YMR4 pVT011 contains vector alone; INVSC MDRI is the wild-type yeast strain overexpressing AtPGP-1; and INVSC pVT101 contains vector alone.
as §1, with “month. Cells cultured in media alone: To create cell lines that had not been preselected for their ability to grow in drug, yeast strains were grown on plates containing YNB (Bio101, Vista, Calif.) without uracil (-URA) to maintain the presence of the vector (which supplies URA) without any drugs added.” for “month.”
Growth of cells in suspension for ATP and drug selection experiments: Cells were transferred into 5 ml YNB-URA liquid media for turbidity measurements. All cell lines (both non-drug selected and drug-selected) were grown in media with the addition of either nothing, 500 ng/ml cycloheximide, 100 mM ATP, or 500 ng/ml cycloheximide and 100 mM ATP. Turbidity readings were taken after 48 hours.

For `Nc1ncnc2c1ncn2[C@@H]1O[C@H](CO)[C@@H](O)[C@H]1O` [adenosine], the “effect on resistance of yeast cells to cycloheximide” value (YMR4 yeast [1]) was “did not enhance resistance”.

In the case of `C[C@@H]1C[C@@H]([C@H](O)CC2CC(=O)NC(=O)C2)C(=O)[C@@H](C)C1` [cycloheximide], the “yeast growth in drug” value (YMR4 yeast [2]; YMR4 mutant, cycloheximide 500 ng/ml) is reported as “did not grow”, the “yeast growth in drug” value (INVSCI yeast) is reported as “did grow” and the germination rate [3] is reported as 2%. The germination rate [4] was 50%.

In the case of `Nc1ncnc2c1ncn2[C@@H]1O[C@H](COP(=O)(O)CP(=O)(O)O)[C@@H](O)[C@H]1O` [phosphatase inhibitor, α,β-methyleneadenosine 5′-diphosphate], the germination rate [3] is reported as 90% and the germination rate [4] is reported as 83%.

Compound `O=C(Cc1cccc2ccccc12)N/N=C/c1ccc(Br)cc1` [NGXT196] has an IC50 (SW-13) of 30 µg/mL (≈ 81.7 µM) and an IC50 (SW-13Vb003) of 10 µg/mL (≈ 27.2 µM).

Work on `Cc1ccc(O)c(/C=N/NC(=O)Cc2cccc3ccccc23)c1` [NGXT194] yielded an IC50 (SW-13) of 20 µg/mL (≈ 62.8 µM) and an IC50 (SW-13Vb003) of 10 µg/mL (≈ 31.4 µM).

With `CO[C@@H]1C[C@@H](C[C@H]2CC[C@H](C)[C@H]([C@@H](C)C(=O)O)O2)O[C@]2(O[C@](C)([C@H]3CC[C@@](C)([C@@H]4O[C@@H]([C@H]5O[C@@](O)(CO)[C@H](C)C[C@@H]5C)C[C@@H]4C)O3)C[C@H]2C)[C@@H]1C` [nigericin] the “yeast growth in drug” value (YMR4 yeast [2]; YMR4 containing vector alone, nigericin 25 μg/ml) was “reduced growth”.

In the case of `Cc1ccc(C(=O)Nc2ccc(S(=O)(=O)O)c3cc(S(=O)(=O)O)cc(S(=O)(=O)O)c23)cc1NC(=O)c1cccc(NC(=O)Nc2cccc(C(=O)Nc3cc(C(=O)Nc4ccc(S(=O)(=O)O)c5cc(S(=O)(=O)O)cc(S(=O)(=O)O)c45)ccc3C)c2)c1` [Suramin, 8,8′[Carbonylbis[imino-3,1-phenylenecarbonylimino(4-methyl-3,1-phenylene)carbonylimino]]bis-1,3,5-naphthalenetrisulfonic acid], the “inhibition of ectoapyrase activity” value [5] is listed as “potent non-competitive inhibitor”.

For `Nc1ncnc2c1ncn2[C@@H]1O[C@H](COP(=O)(O)OP(=O)(O)OP(=O)(O)O)[C@@H](O)[C@H]1O` [ATP], the “yeast growth in high levels of ATP” value ([6]; cells not previously selected in drug) was “able to grow” and the “yeast growth in high levels of ATP” value ([6]; cells previously grown in drug (resistant), not overexpressing AtPGP-1) was “not able to grow”.

In the case of `C/C(=N\NC(=O)c1cccc(C)c1)c1ccc2ccccc2c1` [NGXT1915], the IC50 (SW-13) is reported as 50 µg/mL (≈ 165 µM) and the IC50 (SW-13Vb003) is reported as 20 µg/mL (≈ 66.1 µM).

With `O=P(O)(O)O` [phosphate, potassium phosphate] the “effect on resistance of yeast cells to cycloheximide” value (YMR4 yeast [1]) was “did not enhance resistance”.
